The subject of data set [1] is noradrenaline tissue levels. Put plainly: Noradrenaline tissue levels in heart and brain of mice after oral administration. It counts as in vivo, mouse. The note with it: for recovery of initial noradrenaline tissue levels: mouse heart, at 24 h; for recovery of initial noradrenaline tissue levels / Time of maximum effect (Tmax) for noradrenaline tissue reduction / duration of action in the heart: 100 mg/kg oral; for Time of maximum effect (Tmax) for noradrenaline tissue reduction / dose at which the maximal inhibitory effect was attained: mouse left ventricle; for dose at which the maximal inhibitory effect was attained / noradrenaline levels in left ventricle / noradrenaline tissue levels in the brain parietal cortex: 9 h after oral administration; for duration of action in the heart / noradrenaline levels in left ventricle / noradrenaline tissue levels in the brain parietal cortex: mouse; for duration of action in the heart: time course. As for the experimental part: (§1) Male NMRI mice or Wistar rats were obtained from Harlan-lnterfauna (Spain) and were kept 10 and 5 per cage respectively, under controlled environmental conditions (12 h light/dark cycle and room temperature 22±1° C.). Food and tap water were allowed ad libitum and experimentation was performed during daylight hours.
(§2) At time =0 h, animals were administered with either test compounds at a given dose or vehicle (water) delivered orally via gavage. At 2, 6, 9, 12, 18 and 24 h post dose, the animals were sacrificed by decapitation and heart (left atrium and left ventricle) and brain (frontal and parietal cortex) were isolated, weighed and stored in a volume of 0.2 M perchloric acid for 12 h at 4° C. in the dark. Post incubation, the resulting supernatants were collected by centrifuge filtration of incubates ([…]/10 min/˜5000 rpm, 4° C.). Supernatants were stored frozen at −80° C. until analysis. Quantification of dopamine and noradrenaline in supernatants was performed by high pressure liquid chromatography with electrochemical detection.

In data set [2] the test system is noradrenaline tissue levels. Put plainly: Noradrenaline tissue levels in heart and brain of rats after oral administration. Format: in vivo. The note with it: rat; for noradrenaline tissue levels in brain parietal cortex and brain frontal cortex: 9 h after oral administration; for dose dependence of effects upon noradrenaline / time of maximum effect upon noradrenaline: oral. Here is the method:
as §1, §2

The target of data set [3] is T1, human DβH (Homo sapiens, UniProt P09172).
T1 construct: SK-N-SH cells (ATCC HTB-11), a human neuroblastoma derived cell line, were used as a source of human DβH; host or cells: SK-N-SH cells
T1 sequence (P09172 1-617): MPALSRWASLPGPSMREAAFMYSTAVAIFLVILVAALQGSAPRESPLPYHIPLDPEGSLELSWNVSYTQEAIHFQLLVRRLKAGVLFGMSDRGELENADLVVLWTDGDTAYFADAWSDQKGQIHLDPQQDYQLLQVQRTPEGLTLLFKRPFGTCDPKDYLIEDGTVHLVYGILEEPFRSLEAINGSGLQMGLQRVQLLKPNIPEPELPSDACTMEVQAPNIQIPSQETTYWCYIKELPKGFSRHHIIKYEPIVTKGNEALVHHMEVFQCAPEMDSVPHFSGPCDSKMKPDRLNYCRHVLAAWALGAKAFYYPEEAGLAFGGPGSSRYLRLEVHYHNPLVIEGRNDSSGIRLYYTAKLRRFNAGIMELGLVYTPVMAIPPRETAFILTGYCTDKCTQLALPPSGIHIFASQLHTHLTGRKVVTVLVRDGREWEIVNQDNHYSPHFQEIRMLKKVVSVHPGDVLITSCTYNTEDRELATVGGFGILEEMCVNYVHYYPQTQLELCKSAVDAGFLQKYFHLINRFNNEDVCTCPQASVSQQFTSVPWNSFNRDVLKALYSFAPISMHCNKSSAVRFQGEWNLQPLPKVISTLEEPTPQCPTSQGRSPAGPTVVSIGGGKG
Put plainly: DβH activity (β-hydroxylation of dopamine to noradrenaline) in SK-N-SH cells. It counts as cell-based. The note with it: for inhibition of DβH activity (in words): 5 μM, as listed in Table 1; for remaining activity at 5 µM: SK-N-SH, 0.75 h, read-out: DβH activity in SK-N-SH cells, Mean ± SEM; for IC50 values against human DβH activity (in words): concentration-dependent decrease in β-hydroxylation of dopamine; for IC50: read-out: IC50 for inhibition of DβH in SK-N-SH cells. As for the experimental part:
SK-N-SH cells (ATCC HTB-11), a human neuroblastoma derived cell line, were used as a source of human DβH. SK-N-SH cells cultured in 24 well plates were preincubated for 20 min in a reaction medium containing 200 mM sodium acetate, 30 mM N-ethylmaleimide, 5 μM copper sulphate, 0.5 mg/ml catalase aqueous solution, 1 mM pargyline, 10 mM sodium fumarate and 20 mM ascorbic acid. […] During preincubation and incubation, the cells were continuously shaken and maintained at 37° C. The reaction was terminated by the addition of 0.2 M perchloric acid. The acidified samples were stored at 4° C. before injection into the high pressure liquid chromatograph for the assay of noradrenaline.

For data set [4] the following is noted: prior art finding; cited from earlier work.

We go through four compounds from US7259271B2, “Peripherally-selective inhibitors of dopamine-β-hydroxylase and method of their preparation” (Portela & C.A., S.A., priority 2002, dated 2007).

The structures appear in SMILES notation. Where a name gives a salt, the structure may show the parent alone.

For the compound `Cl.NCCc1c[nH]c(=S)n1[C@H]1COc2c(F)cc(F)cc2C1` [Compound 4, (R)-5-(2-aminoethyl)-1-(6,8-difluorochroman-3-yl)-1,3-dihydroimidazole-2-thione hydrochloride], in data set [1], the “recovery of initial noradrenaline tissue levels” value came out at 50%, the “Time of maximum effect (Tmax) for noradrenaline tissue reduction” value was determined as 9 h, the “dose at which the maximal inhibitory effect was attained” value was 100 mg/kg and the “duration of action in the heart” value was “long acting”. Besides, in data set [1], the “noradrenaline levels in left ventricle” value was “dose-dependent manner” and the “noradrenaline tissue levels in the brain parietal cortex” value was “failed to affect”. Moreover, the “inhibitory effects upon noradrenaline levels in left atrium and left ventricle” value in data set [2] (100 mg/kg oral, 9 h) was “more pronounced than those elicited by 1”. Also, in data set [2], the “noradrenaline tissue levels in brain parietal cortex and brain frontal cortex” value was “failed to affect”; the “dose dependence of effects upon noradrenaline” value is “dependent on the dose administered”; the “time of maximum effect upon noradrenaline” value was 9 h. In data set [3], the “inhibition of DβH activity (in words)” value is on record as “markedly inhibit”; the remaining activity at 5 µM came out at 3.3 ± 0.3%; the “IC50 values against human DβH activity (in words)” value is “low nM range”; the IC50 – broadly, the concentration at which inhibition is half-maximal – is 105 nM.

As for `NCc1c[nH]c(=S)n1[C@H]1CCc2c(F)cc(F)cc2C1` [Compound 1, nepicastat, reference compound], in data set [1], the “recovery of initial noradrenaline tissue levels” value came to 50%, the “Time of maximum effect (Tmax) for noradrenaline tissue reduction” value was determined as 9 h, the “dose at which the maximal inhibitory effect was attained” value is given as 100 mg/kg and the “duration of action in the heart” value is “long acting”. Further, in data set [1], the “noradrenaline levels in left ventricle” value is listed as “dose-dependent manner” and the “noradrenaline tissue levels in the brain parietal cortex” value is recorded as “dose-dependent decrease”. For the same compound, in data set [2], the “noradrenaline tissue levels in brain parietal cortex and brain frontal cortex” value is on record as “marked decrease”; the “dose dependence of effects upon noradrenaline” value is reported as “dependent on the dose administered”; the “time of maximum effect upon noradrenaline” value is listed as 9 h. Moreover, in data set [4], the “crossing of the blood brain barrier (BBB)” value was “cross the blood brain barrier”. Also, in data set [3], the remaining activity at 5 µM turned out to be 0%, the “IC50 values against human DβH activity (in words)” value was “low nM range” and the IC50 came out at 36 nM.

For the compound `NCCc1c[nH]c(=S)n1[C@H]1CCc2ccccc2C1` [Compound 20, (S)-5-(2-aminoethyl)-1-(1,2,3,4-tetrahydronaphthalen-2-yl)-1,3-dihydroimidazole-2-thione hydrochloride], the remaining activity at 5 µM in data set [3] is 16.8 ± 4.8%.

Turning to `Cl.NCCc1c[nH]c(=S)n1[C@H]1COc2c(cc(F)c(F)c2F)C1` [Compound 10, (R)-5-(2-aminoethyl)-1-(6,7,8-trifluorochroman-3-yl)-1,3-dihydroimidazole-2-thione hydrochloride], in data set [3], the “inhibition of DβH activity (in words)” value is “markedly inhibit” and the remaining activity at 5 µM was 8.2 ± 0.7%.
